# Experiments:
# JNK2 = JNK2 (Homo sapiens, UniProt P45984); experiment: kinase activity in vitro; assay type: biochemical
# MDA-MB-468 [1] = experiment: mitotic catastrophe, nuclear staining; assay type: cell-based, human; settings: MDA-MB-468, 0.5 μM, 30 h
# Method: (§1) Then treated tumor cells were washed with PBS and stain with Hoechst 33342 in the dark for 15 min. Image were taken by fluorescence microscopy for morphological changes after YLT-11 treatment.
# MDA-MB-231 [2] = experiment: mitotic catastrophe, nuclear staining; assay type: cell-based, human; settings: MDA-MB-231, 0.5 μM, 30 h
# Method: as §1
# PLK2 [3] = molecular target: T1, PLK2 (Homo sapiens, UniProt Q9NYY3); experiment: kinase activity in vitro; assay type: biochemical
# T1 construct: made in house; host or cells: T7 phage in E. coli (BL21-derived) or HEK-293 cells
# T1 sequence (Q9NYY3 whole entry): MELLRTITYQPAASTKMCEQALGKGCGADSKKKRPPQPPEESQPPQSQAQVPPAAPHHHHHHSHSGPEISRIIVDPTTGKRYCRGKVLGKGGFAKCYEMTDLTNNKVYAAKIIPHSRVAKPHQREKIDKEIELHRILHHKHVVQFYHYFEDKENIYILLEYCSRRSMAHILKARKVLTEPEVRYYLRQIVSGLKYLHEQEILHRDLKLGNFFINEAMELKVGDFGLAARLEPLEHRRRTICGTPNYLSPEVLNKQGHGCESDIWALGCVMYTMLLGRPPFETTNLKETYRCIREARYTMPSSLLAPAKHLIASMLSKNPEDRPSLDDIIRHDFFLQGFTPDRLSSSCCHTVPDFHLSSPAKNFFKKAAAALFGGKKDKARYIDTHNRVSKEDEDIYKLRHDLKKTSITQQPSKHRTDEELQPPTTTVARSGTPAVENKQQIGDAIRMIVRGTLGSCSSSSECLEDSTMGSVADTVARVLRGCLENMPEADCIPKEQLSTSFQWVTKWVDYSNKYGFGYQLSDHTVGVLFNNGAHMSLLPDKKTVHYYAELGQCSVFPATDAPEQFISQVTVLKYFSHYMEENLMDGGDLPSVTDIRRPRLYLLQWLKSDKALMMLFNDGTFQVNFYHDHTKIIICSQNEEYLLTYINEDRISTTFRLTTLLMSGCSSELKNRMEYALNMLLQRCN
# MCF-7 tumor xenograft = settings: MCF-7 xenograft, 90 mg/kg p.o. every day
# [4] = tested on: MDA-MB-231 tumor xenograft; settings: MDA-MB-231 xenograft, 90 mg/kg p.o. every day
# PLK1 [5] = molecular target: T2, PLK1 (Homo sapiens, UniProt P53350); experiment: kinase activity in vitro; assay type: biochemical
# T2 sequence (P53350 whole entry): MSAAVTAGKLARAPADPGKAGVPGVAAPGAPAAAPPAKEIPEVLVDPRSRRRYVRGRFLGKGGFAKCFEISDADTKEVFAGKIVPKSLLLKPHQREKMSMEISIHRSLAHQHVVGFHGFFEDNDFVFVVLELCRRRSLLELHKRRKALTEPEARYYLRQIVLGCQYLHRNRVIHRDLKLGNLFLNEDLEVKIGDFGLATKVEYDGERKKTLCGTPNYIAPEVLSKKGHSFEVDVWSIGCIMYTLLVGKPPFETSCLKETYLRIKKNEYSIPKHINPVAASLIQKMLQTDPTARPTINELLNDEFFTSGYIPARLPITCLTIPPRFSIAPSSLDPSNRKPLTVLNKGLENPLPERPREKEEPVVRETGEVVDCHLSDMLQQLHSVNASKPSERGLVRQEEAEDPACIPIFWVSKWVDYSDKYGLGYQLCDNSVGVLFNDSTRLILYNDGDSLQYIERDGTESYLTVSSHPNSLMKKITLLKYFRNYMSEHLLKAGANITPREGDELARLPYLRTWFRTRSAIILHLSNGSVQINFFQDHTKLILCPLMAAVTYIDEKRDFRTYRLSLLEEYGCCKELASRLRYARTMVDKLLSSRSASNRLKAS
# NEK2 = NEK2 (Homo sapiens, UniProt P51955); experiment: kinase activity in vitro; assay type: biochemical
# Sequence of NEK2 (P51955 whole entry): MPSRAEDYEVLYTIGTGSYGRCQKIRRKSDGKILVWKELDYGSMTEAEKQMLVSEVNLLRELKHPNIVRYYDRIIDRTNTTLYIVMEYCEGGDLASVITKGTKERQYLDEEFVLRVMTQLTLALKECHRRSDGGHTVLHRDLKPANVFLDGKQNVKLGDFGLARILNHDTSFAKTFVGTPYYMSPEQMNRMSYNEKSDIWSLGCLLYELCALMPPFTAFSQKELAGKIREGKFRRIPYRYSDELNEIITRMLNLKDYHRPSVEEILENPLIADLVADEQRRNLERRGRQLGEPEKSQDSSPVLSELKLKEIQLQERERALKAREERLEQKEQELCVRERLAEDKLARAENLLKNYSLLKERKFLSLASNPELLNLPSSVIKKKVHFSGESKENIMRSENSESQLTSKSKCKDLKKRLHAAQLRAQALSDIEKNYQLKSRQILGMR
# [6] = tested on: MDA-MB-468 tumor xenograft; settings: MDA-MB-468 xenograft, 90 mg/kg p.o. every day
# PLK3 [7] = molecular target: T3, PLK3 (Homo sapiens, UniProt Q9H4B4); experiment: kinase activity in vitro; assay type: biochemical
# T3 sequence (Q9H4B4 whole entry): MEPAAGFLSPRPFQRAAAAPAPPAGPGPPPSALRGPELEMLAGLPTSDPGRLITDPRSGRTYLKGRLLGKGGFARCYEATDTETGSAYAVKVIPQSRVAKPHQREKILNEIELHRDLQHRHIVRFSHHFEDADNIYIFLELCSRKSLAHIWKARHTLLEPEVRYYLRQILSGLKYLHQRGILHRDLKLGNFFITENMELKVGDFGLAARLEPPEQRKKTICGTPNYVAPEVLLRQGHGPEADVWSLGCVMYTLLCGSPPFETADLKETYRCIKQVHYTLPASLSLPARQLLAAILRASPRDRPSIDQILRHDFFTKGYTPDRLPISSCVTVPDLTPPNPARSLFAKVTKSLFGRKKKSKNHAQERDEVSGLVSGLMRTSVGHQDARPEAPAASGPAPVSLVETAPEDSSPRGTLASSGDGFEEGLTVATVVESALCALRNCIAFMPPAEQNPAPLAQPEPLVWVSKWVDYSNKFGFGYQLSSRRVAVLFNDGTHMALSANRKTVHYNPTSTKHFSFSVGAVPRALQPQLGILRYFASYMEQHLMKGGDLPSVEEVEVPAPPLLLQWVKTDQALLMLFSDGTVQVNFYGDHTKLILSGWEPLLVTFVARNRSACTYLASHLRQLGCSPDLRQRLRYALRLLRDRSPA
# [8] = tested on: MDA-MB-468 and MDA-MB-231; experiment: centriole number by immunofluorescence (centrin 2, γ-tublin); assay type: cell-based, human; settings: 24 h
# Method: Tumor cells were seeded in Millicell EZ SLIDE 8 well glass slide (Millipore, Ireland) at the density of 2 × 10^4 per well. […] Then cells were incubated with primary antibody overnight at 4 ℃ after blocked with 1% BSA. Goat anti-rabbit and goat anti-mouse secondary antibodies conjugated to FITC and […] were used to detect primary antibodies. Cell nucleuses were stained with DAPI. Images were taken using a Leica cofocusing microscope.
# TTBK2 = TTBK2 (Homo sapiens, UniProt Q6IQ55); experiment: kinase activity in vitro; assay type: biochemical
# Sequence of TTBK2 (Q6IQ55 whole entry): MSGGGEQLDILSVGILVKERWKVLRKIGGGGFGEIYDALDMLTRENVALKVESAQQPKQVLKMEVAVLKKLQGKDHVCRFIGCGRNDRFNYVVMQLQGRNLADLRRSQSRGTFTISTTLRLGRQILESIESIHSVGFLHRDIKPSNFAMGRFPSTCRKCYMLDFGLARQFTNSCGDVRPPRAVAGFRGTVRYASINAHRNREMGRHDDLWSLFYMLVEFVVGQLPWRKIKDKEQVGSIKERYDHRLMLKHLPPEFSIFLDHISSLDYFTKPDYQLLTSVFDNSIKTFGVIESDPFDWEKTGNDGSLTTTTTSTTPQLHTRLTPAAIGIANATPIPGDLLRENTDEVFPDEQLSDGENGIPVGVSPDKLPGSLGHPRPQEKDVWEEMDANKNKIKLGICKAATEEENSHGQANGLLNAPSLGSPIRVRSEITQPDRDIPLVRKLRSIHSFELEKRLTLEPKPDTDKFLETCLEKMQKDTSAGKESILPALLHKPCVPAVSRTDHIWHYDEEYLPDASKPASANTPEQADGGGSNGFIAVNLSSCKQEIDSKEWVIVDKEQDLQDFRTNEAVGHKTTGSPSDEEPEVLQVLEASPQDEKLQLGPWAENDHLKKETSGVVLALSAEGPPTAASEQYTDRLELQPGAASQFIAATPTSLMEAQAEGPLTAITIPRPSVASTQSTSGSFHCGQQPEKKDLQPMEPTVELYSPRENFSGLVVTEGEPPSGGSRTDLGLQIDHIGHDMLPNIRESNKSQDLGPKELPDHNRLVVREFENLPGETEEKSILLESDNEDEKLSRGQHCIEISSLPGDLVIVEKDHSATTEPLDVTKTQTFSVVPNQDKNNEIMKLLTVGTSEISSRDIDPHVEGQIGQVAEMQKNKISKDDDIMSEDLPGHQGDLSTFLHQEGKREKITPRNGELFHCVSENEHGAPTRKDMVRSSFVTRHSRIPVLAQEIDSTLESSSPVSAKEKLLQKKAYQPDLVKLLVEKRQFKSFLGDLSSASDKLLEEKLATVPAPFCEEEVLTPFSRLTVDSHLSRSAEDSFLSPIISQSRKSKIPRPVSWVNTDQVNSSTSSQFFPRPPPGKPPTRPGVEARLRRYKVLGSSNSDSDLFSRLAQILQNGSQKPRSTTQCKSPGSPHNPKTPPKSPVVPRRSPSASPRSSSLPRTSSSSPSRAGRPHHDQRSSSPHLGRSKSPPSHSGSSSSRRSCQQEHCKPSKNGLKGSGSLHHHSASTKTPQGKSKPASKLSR
# EGFR = EGFR (Homo sapiens, UniProt P00533); experiment: kinase activity in vitro; assay type: biochemical
# Aurora A = Aurora A (Homo sapiens, UniProt O14965); experiment: kinase activity in vitro; assay type: biochemical
# MDA-MB-436 = experiment: cells; settings: Homo sapiens, MDA-MB-436, read-out: IC50 proliferation
# Method: (§2) The IC50 values were calculated using the GraphPad Prism software, each assay was replicated 3 times.
# MDA-MB-453 = experiment: cells; settings: Homo sapiens, MDA-MB-453, read-out: IC50 proliferation
# Method: as §2
# MDA-MB-468 [9] = experiment: cells; settings: Homo sapiens, MDA-MB-468, read-out: IC50 proliferation
# Method: as §2
# HCC1954 = experiment: cells; settings: Homo sapiens, HCC1954, read-out: IC50 proliferation
# Method: as §2
# MDA-MB-231 [10] = experiment: cells; settings: Homo sapiens, MDA-MB-231, read-out: IC50 proliferation
# Method: as §2
# BT474 = experiment: cells; settings: Homo sapiens, BT-474, read-out: IC50 proliferation
# Method: as §2
# SKBR-3 = experiment: cells; settings: Homo sapiens, SK-BR-3, read-out: IC50 proliferation
# Method: as §2
# MDA-MB-435 = experiment: cells; settings: Homo sapiens, MDA-MB-435, read-out: IC50 proliferation
# Method: as §2
# ZR-75-30 = experiment: cells; settings: Homo sapiens, ZR-75-30, read-out: IC50 proliferation
# Method: as §2
# ZR-75-1 = experiment: cells; settings: Homo sapiens, ZR-75-1, read-out: IC50 proliferation
# Method: as §2
# TNBC cell lines = experiment: cells; settings: Homo sapiens, read-out: IC50 proliferation, range over TNBC cell lines
# Method: as §2
# MCF-10A = experiment: cells; settings: Homo sapiens, read-out: IC50 proliferation
# Method: as §2
# BT549 = experiment: cells; settings: Homo sapiens, BT-549, read-out: IC50 proliferation
# Method: as §2
# MCF-7 = experiment: cells; settings: Homo sapiens, MCF7, read-out: IC50 proliferation
# Method: as §2
# PLK1 [11] = molecular target: T2, PLK1; experiment: competition binding constant assay
# Method: (§3) Kinases were produced in HEK-293 cells and subsequently tagged with DNA for quantitative polymerase chain reaction (qPCR) detection. […] The beads were blocked with excess biotin and washed with blocking buffer (SeaBlock, 1% bovine serum albumin, 0.05% Tween-20, 1 mM dithiothreitol (DTT)). […] The kinase concentration in the eluates was measured by qPCR.
# ERBB2/HER2 = ERBB2/HER2 (Homo sapiens, UniProt P04626); experiment: kinase activity in vitro; assay type: biochemical
# Sequence of ERBB2/HER2 (P04626 23-1255): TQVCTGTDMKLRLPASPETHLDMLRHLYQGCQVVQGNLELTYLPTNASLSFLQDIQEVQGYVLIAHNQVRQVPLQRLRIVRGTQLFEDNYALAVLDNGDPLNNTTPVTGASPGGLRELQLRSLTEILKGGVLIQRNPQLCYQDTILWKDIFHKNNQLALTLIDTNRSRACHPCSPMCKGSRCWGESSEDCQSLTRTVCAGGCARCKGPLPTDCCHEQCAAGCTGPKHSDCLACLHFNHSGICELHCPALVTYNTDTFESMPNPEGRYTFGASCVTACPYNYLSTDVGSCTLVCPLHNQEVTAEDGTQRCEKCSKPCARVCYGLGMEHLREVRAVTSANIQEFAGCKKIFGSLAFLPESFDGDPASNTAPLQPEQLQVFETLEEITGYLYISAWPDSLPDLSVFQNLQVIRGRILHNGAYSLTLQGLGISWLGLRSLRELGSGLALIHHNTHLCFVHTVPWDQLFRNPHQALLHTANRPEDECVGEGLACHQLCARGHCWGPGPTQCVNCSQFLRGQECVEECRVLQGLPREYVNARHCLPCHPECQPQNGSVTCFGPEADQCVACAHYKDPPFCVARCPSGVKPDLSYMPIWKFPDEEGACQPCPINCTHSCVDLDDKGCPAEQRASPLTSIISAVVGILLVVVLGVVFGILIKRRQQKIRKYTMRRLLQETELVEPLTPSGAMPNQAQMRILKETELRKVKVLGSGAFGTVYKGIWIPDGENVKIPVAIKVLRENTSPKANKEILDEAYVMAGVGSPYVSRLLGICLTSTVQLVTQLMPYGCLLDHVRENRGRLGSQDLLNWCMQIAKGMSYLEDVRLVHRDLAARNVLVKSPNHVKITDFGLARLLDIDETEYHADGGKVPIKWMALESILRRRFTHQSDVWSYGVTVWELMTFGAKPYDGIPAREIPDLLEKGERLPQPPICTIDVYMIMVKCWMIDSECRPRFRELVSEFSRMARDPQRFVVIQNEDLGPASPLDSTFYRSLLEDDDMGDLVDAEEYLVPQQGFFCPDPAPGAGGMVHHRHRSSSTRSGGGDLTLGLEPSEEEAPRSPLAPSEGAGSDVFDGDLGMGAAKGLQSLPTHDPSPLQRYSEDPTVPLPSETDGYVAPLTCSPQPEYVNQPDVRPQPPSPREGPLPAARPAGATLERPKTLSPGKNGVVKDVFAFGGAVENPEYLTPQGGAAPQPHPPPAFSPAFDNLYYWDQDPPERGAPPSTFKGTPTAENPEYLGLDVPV
# PLK2 [12] = molecular target: T1, PLK2; experiment: competition binding constant assay
# Method: as §3
# sub-acute toxicity test = assay type: in vivo, BALB/c mice; settings: single oral dose 1 g/kg, observed 15 days
# From the text: Then blood of the mice was obtained for serum biochemistry and hematological analysis using a Hitachi 7200 Blood Chemistry Analyzer and a Nihon Kohdern MEK-5216K Automatic Hematology Analyzer. The heart, liver, spleen, lung and kidney were fixed and routinely processed and embedded in paraﬃn for hematoxylin and eosin (H&E) staining analysis.
# FGFR1 = FGFR1 (Homo sapiens, UniProt P11362); experiment: kinase activity in vitro; assay type: biochemical
# PLK3 [13] = molecular target: T3, PLK3; experiment: competition binding constant assay
# Method: as §3
# breast xenograft models = experiment: breast tumor xenograft models (overall, tolerability); assay type: in vivo, BALB/c nude mice
# MDA-MB-231 xenografts = experiment: immunohistochemical analysis of tumor tissues; settings: MDA-MB-231 tumor tissue
# From the text: Tumor tissues obtained from the animal models were immersed in 4% paraformaldehyde. After washing with running tap water overnight, the tissues dehydrated trough a serial alcohol gradient and embedded in paraffin, Paraffin-embedded tumor sections were stained with primary antibodies (Ki67, cleaved caspase-3, p21, CDC25C, CyclinB1) using the DAB Detection Kit. The images were captured with a Carl Zeiss digital camera attached to a light microscope.
# TTBK1 = TTBK1 (Homo sapiens, UniProt Q5TCY1); experiment: kinase activity in vitro; assay type: biochemical
# TOPK = TOPK (Homo sapiens, UniProt Q96KB5); experiment: kinase activity in vitro; assay type: biochemical
structure (smiles),measurement,setting,value
"CC(=O)Nc1nccc(-c2ccc3c(/C=C/c4ccc(CN(C)C)cc4)n[nH]c3c2)n1 [YLT-11, (E)-N-(4-(3-(4-((dimethylamino)methyl)styryl)-1H-indazol-6-yl)pyrimidin-2-yl)acetamide]",IC50,JNK2,2700 nM
same,Percentage of cells with mitotic catastrophe,MDA-MB-468 [1],approximately 67%
same,Percentage of cells with mitotic catastrophe,MDA-MB-231 [2],about 58%
same,IC50,PLK2 [3],5730 nM
same,tumor inhibition rate,MCF-7 tumor xenograft,68%
same,tumor inhibition rate,[4],76.7%
same,IC50,PLK1 [5],4780 nM
same,IC50,NEK2,332 nM
same,tumor inhibition rate,[6],82.5%
same,IC50,PLK3 [7],4120 nM
same,effect on centriole duplication,[8]; 0.5 μM,centriole duplications were conspicuously suppressed
same,effect on centriole numbers,[8]; low concentrations (≤0.25 μM),increased the centriole numbers
same,IC50,TTBK2,8490 nM
same,IC50,EGFR,664 nM
same,IC50,Aurora A,468 nM
same,IC50,MDA-MB-436,80 nM
same,IC50,MDA-MB-453,210 nM
same,IC50,MDA-MB-468 [9],68 nM
same,IC50,HCC1954,170 nM
same,IC50,MDA-MB-231 [10],120 nM
same,IC50,BT474,163 nM
same,IC50,SKBR-3,231 nM
same,IC50,MDA-MB-435,154 nM
same,IC50,ZR-75-30,184 nM
same,IC50,ZR-75-1,223 nM
same,IC50,TNBC cell lines,68 to 120 nM
same,IC50,MCF-10A,> 10000 nM
same,IC50,BT549,73 nM
same,IC50,MCF-7,74 nM
same,Kd,PLK1 [11],> 10000 nM
same,IC50,ERBB2/HER2,539 nM
same,Kd,PLK2 [12],653 nM
same,body weight and hematoxylin and eosin staining vs vehicle,sub-acute toxicity test,no obvious difference
same,serological and hematological analyses vs vehicle,sub-acute toxicity test,no significant difference
same,IC50,FGFR1,751 nM
same,Kd,PLK3 [13],> 10000 nM
same,inhibitory rate on tumor growth,"breast xenograft models; breast xenograft models, 90 mg/kg (p.o)",more than 60%
same,body weight of experimental animals,"breast xenograft models; xenograft mice, 30 and 90 mg/kg p.o. every day",no significant loss in body weight
same,cleaved caspase-3-positive cells,MDA-MB-231 xenografts; vehicle 12.3 ± 5.1,66 ± 7.3%
same,Ki67-positive cells,MDA-MB-231 xenografts; vehicle 78 ± 8.1%,29 ± 6.3%
same,IC50,TTBK1,56700 nM
same,IC50,TOPK,1030 nM
